In patent US20230167073A1 (Teijin Pharma Limited, priority 2020, published 2023):

Each compound was assayed against T1, Human TRPC6 (Homo sapiens, UniProt Q9Y210) (assay: Evaluation of TRPC6 channel inhibitory activity (1), FLIPR Calcium 5 Assay Kit, OAG stimulation (Compound Nos. 1-1293)). Details: not given.
T1 construct: expressed in transfected cells
T1 sequence (Q9Y210 1-931): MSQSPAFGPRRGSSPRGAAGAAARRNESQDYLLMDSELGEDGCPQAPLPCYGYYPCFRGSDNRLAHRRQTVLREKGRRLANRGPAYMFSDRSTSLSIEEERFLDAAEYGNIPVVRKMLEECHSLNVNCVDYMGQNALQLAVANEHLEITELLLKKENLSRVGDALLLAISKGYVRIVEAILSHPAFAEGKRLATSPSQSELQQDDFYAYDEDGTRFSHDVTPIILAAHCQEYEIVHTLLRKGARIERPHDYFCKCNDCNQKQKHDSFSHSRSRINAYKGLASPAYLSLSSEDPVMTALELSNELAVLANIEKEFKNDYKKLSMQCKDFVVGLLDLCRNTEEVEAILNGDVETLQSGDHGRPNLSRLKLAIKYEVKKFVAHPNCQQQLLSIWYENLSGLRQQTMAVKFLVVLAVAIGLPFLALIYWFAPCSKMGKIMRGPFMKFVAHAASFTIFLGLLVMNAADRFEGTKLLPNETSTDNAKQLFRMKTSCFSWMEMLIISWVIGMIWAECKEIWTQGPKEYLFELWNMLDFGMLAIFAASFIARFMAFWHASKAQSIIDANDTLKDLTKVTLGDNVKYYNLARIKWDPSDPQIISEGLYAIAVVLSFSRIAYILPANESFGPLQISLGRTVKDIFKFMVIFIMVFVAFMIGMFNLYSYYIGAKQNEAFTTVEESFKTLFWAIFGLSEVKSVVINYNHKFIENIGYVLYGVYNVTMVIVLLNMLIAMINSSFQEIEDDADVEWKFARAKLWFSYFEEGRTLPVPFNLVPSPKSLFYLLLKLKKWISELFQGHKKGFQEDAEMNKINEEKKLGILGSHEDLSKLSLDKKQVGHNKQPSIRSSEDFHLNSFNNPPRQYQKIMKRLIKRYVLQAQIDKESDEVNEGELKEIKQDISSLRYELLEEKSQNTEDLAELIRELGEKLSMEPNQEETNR
Format: cell-based
Outline: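 Stable human TRPC6 line; fluorescent Ca2+ dye loading, then 20 min compound exposure before 30 μM OAG trigger. Peak-minus-baseline signal converted to % inhibition against untreated and unstimulated wells; potency given as pIC50 band.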
With `Cc1nc(Oc2cc(C#N)ccc2-n2cc(C3=CCNCC3)cn2)cc(C2CCCC2)n1` [Compound 221, 3-(6-cyclopentyl-2-methylpyrimidin-4-yl)oxy-4-[4-(1,2,3,6-tetrahydropyridin-4-yl)pyrazol-1-yl]benzonitrile] the IC50 was 10 to 1000 nM.

Same assay, conditions: Human TRPC6 stably-expressing cells, OAG 30 μM, FLIPR Calcium 5 Assay Kit; read-out: Inhibitory activity (pIC50 class) (converted)
With `Cn1nc(-c2ccccc2)cc1Oc1cc(C#N)ccc1-n1cc(N2CCNCCC2=O)cn1` [Compound 219, 3-(2-Methyl-5-phenylpyrazol-3-yl)oxy-4-[4-(7-oxo-1,4-diazepan-1-yl)pyrazol-1-yl]benzonitrile] the IC50 was 10 to 1000 nM. `Cn1nc(C(F)(F)F)cc1Oc1cc(C#N)ccc1-n1cc(N2CCNCC2=O)cn1` [Compound 220, 3-[2-methyl-5-(trifluoromethyl)pyrazol-3-yl]oxy-4-[4-(2-oxopiperazin-1-yl)pyrazol-1-yl]benzonitrile] was tested, and the IC50 was > 1000 nM. With `Cc1nc(Oc2cc(C#N)ccc2-c2nc([C@@H](O)CN)cs2)cc(-c2ccccc2)n1` [Compound 222, 4-[4-[(1S)-2-amino-1-hydroxyethyl]-1,3-thiazol-2-yl]-3-(2-methyl-6-phenylpyrimidin-4-yl)oxybenzonitrile] the IC50 was 10 to 1000 nM. In the case of `Cc1nc(Oc2cc(C#N)ccc2-c2nc([C@H](O)CN)cs2)cc(-c2ccccc2)n1` [Compound 223, 4-[4-[(1R)-2-amino-1-hydroxyethyl]-1,3-thiazol-2-yl]-3-(2-methyl-6-phenylpyrimidin-4-yl)oxybenzonitrile], the IC50 is reported as 10 to 1000 nM. For `Cc1nc(Oc2cc(C#N)ccc2-c2ncc(C(O)CN)s2)cc(-c2ccccc2)n1` (stereo not drawn) [Compound 224, 4-[5-(2-amino-1-hydroxyethyl)-1,3-thiazol-2-yl]-3-(2-methyl-6-phenylpyrimidin-4-yl)oxybenzonitrile], the IC50 was 10 to 1000 nM. In the case of `Cn1nc(-c2ccccc2)cc1Oc1cc(C#N)ccc1-c1ncc(C(O)CN)s1` (stereo not drawn) [Compound 225, 4-[5-(2-amino-1-hydroxyethyl)-1,3-thiazol-2-yl]-3-(2-methyl-5-phenylpyrazol-3-yl)oxybenzonitrile], the IC50 is reported as < 10 nM. `Cc1cc(Oc2cc(C#N)ccc2-n2cc(C(O)CN)cn2)cc(-c2ccccc2)n1` (stereo not drawn) [Compound 226, 4-[4-(2-amino-1-hydroxyethyl)pyrazol-1-yl]-3-(2-methyl-6-phenylpyridin-4-yl)oxybenzonitrile] was tested, and the IC50 was < 10 nM. `Cn1nc(C2CCOCC2)cc1Oc1cc(C#N)ccc1-c1ccc(CCN)cn1` [Compound 227, 4-[5-(2-aminoethyl)pyridin-2-yl]-3-[2-methyl-5-(oxan-4-yl)pyrazol-3-yl]oxybenzonitrile] was tested, and the IC50 was < 10 nM. For `CC(C)Cc1cc(Oc2cc(C#N)ccc2-c2ccc(CCN)cn2)n(C)n1` [Compound 228, 4-[5-(2-aminoethyl)pyridin-2-yl]-3-[2-methyl-5-(2-methylpropyl)pyrazol-3-yl]oxybenzonitrile], the IC50 was < 10 nM. With `CC(C)c1cc(Oc2cc(C#N)ccc2-c2ccc(CCN)cn2)n(C)n1` [Compound 229, 4-[5-(2-aminoethyl)pyridin-2-yl]-3-(2-methyl-5-propan-2-ylpyrazol-3-yl)oxybenzonitrile] the IC50 was < 10 nM. For `CCCc1cc(Oc2cc(C#N)ccc2-c2ccc(CCN)cn2)n(C)n1` [Compound 230, 4-[5-(2-aminoethyl)pyridin-2-yl]-3-(2-methyl-5-propylpyrazol-3-yl)oxybenzonitrile], the IC50 was < 10 nM. With `CNC[C@H](O)c1cnn(-c2ccc(C#N)cc2Oc2cc(-c3ccccc3)nc(C)n2)c1` [Compound 231, 4-[4-[(1R)-1-hydroxy-2-(methylamino)ethyl]pyrazol-1-yl]-3-(2-methyl-6-phenylpyrimidin-4-yl)oxybenzonitrile] the IC50 was < 10 nM. For `Cc1nc(Oc2cc(C#N)ccc2-n2cc([C@@H](O)CN)cn2)cc(N2CCCC2)n1` [Compound 232, 4-[4-[(1R)-2-amino-1-hydroxyethyl]pyrazol-1-yl]-3-(2-methyl-6-pyrrolidin-1-ylpyrimidin-4-yl)oxybenzonitrile], the IC50 was < 10 nM. With `Cc1nc(Oc2cc(C#N)ccc2-n2cc([C@@H](O)CN)cn2)cc(N2CCCCC2)n1` [Compound 233, 4-[4-[(1R)-2-amino-1-hydroxyethyl]pyrazol-1-yl]-3-(2-methyl-6-piperidin-1-ylpyrimidin-4-yl)oxybenzonitrile] the IC50 was < 10 nM. `Cc1nc(Oc2cc(C#N)ccc2-n2cc([C@@H](O)CN)cn2)cc(N2CCC(C(C)C)CC2)n1` [Compound 234, 4-[4-[(1R)-2-amino-1-hydroxyethyl]pyrazol-1-yl]-3-[2-methyl-6-(4-propan-2-ylpiperidin-1-yl)pyrimidin-4-yl]oxybenzonitrile] was tested, and the IC50 was > 1000 nM. `Cc1nc(Oc2cc(C#N)ccc2-n2cc([C@@H](O)CN)cn2)cc(N2CCCC(C)(C)C2)n1` [Compound 235, 4-[4-[(1R)-2-amino-1 hydroxyethyl]pyrazol-1-yl]-3-[6-(3,3-dimethylpiperidin-1-yl)-2-methylpyrimidin-4-yl]oxybenzonitrile] showed an IC50 of 10 to 1000 nM. For `Cc1nc(Oc2cc(C#N)ccc2-n2cc([C@@H](O)CN)cn2)cc(N2CC(F)(F)C2)n1` [Compound 236, 4-[4-[(1R)-2-amino-1-hydroxyethyl]pyrazol-1-yl]-3-[6-(3,3-difluoroazetidin-1-yl)-2-methylpyrimidin-4-yl]oxybenzonitrile], the IC50 was 10 to 1000 nM. In the case of `Cn1nc(C2CCC2)cc1Oc1cc(C#N)ccc1-c1ccc(CCN)cn1` [Compound 237, 4-[5-(2-aminoethyl)pyridin-2-yl]-3-(5-cyclobutyl-2-methylpyrazol-3-yl)oxybenzonitrile], the IC50 is reported as < 10 nM. In the case of `Cn1nc(C2CCC2)cc1Oc1cc(C#N)ccc1-c1ncc(C(O)CN)s1` (stereo not drawn) [Compound 238, 4-[5-(2-amino-1-hydroxyethyl)-1,3-thiazol-2-yl]-3-(5-cyclobutyl-2-methylpyrazol-3-yl)oxybenzonitrile], the IC50 is reported as < 10 nM. For `Cc1nc(Oc2cc(C#N)ccc2-c2cnn(C3CCNCC3)c2)cc(N2CCOCC2)n1` [Compound 239, 3-(2-methyl-6-morpholin-4-ylpyrimidin-4-yl)oxy-4-(1-piperidin-4-ylpyrazol-4-yl)benzonitrile], the IC50 was > 1000 nM. With `Cc1nc(Oc2cc(C#N)ccc2-c2ccc(C[C@H](N)C(N)=O)cc2)cc(-c2ccccc2)n1` [Compound 240, (2S)-2-amino-3-[4-[4-cyano-2-(2-methyl-6-phenylpyrimidin-4-yl)oxyphenyl]phenyl]propanamide] the IC50 was 10 to 1000 nM. For `Cc1cc(Oc2cc(C#N)ccc2-n2cc(C(O)CN)cn2)cc(N2CCOCC2)n1` (stereo not drawn) [Compound 241, 4-[4-(2-amino-1-hydroxyethyl)pyrazol-1-yl]-3-(2-methyl-6-morpholin-4-ylpyridin-4-yl)oxybenzonitrile], the IC50 was < 10 nM. In the case of `COCc1nn(C)c(Oc2cc(C#N)ccc2-c2ccc(CCN)cc2)c1C` [Compound 242, 4-[4-(2-aminoethyl)phenyl]-3-[5-(methoxymethyl)-2,4-dimethylpyrazol-3-yl]oxybenzonitrile], the IC50 is reported as > 1000 nM. For `CC(C)Cc1nn(C)c(Oc2cc(C#N)ccc2-c2ccc(CCN)cc2)c1C(C)C` [Compound 243, 4-[4-(2-aminoethyl)phenyl]-3-[2-methyl-5-(2-methylpropyl)-4-propan-2-ylpyrazol-3-yl]oxybenzonitrile], the IC50 was > 1000 nM. Compound `Cc1nc(Oc2cc(C#N)ccc2-n2cc([C@@H](O)CNC3COC3)cn2)cc(-c2ccccc2)n1` [Compound 244, 4-[4-[(1R)-1-hydroxy-2-(oxetan-3-ylamino)ethyl]pyrazol-1-yl]-3-(2-methyl-6-phenylpyrimidin-4-yl)oxybenzonitrile] has an IC50 of 10 to 1000 nM. Compound `Cn1nc(COC2CCCC2)cc1Oc1cc(C#N)ccc1-c1ccc(CCN)cn1` [Compound 245, 4-[5-(2-aminoethyl)pyridin-2-yl]-3-[5-(cyclopentyloxymethyl)-2-methylpyrazol-3-yl]oxybenzonitrile] has an IC50 of 10 to 1000 nM. `N#Cc1ccc(-c2ncc(C(O)CN)s2)c(Oc2cnnc(-c3ccccc3)c2)c1` (stereo not drawn) [Compound 246, 4-[5-(2-amino-1-hydroxyethyl)-1,3-thiazol-2-yl]-3-(6-phenylpyridazin-4-yl)oxybenzonitrile] was tested, and the IC50 was < 10 nM. In the case of `Cc1nc(Oc2cc(C#N)ccc2-c2ccc(CC(C)(C)N)cc2)cc(N2CCOCC2)n1` [Compound 247, 4-[4-(2-amino-2-methylpropyl)phenyl]-3-(2-methyl-6-morpholin-4-ylpyrimidin-4-yl)oxybenzonitrile], the IC50 is reported as < 10 nM. For `Cn1nc(-c2ccccc2)cc1Oc1cc(C#N)ccc1-c1ncc(C(O)CN)cn1` (stereo not drawn) [Compound 248, 4-[5-(2-amino-1-hydroxyethyl)pyrimidin-2-yl]-3-(2-methyl-5-phenylpyrazol-3-yl)oxybenzonitrile], the IC50 was < 10 nM.
